In US4705749A, “Process and reagent for the determination of glycerol with the use of glycerol kinase” (Boehringer Mannheim GmbH, priority 1983, dated 1987):

Legend:
[1] = molecular target: T1, GK from Bacillus stearothermophilus (Geobacillus stearothermophilus, UniProt A0ACH1EBP7); assay: Comparative investigation of inhibitors, reaction rate ΔE/min (Table 1); format: biochemical; settings: sample glycerol 6 mMole/liter, 1:100, 25° C., 546 nm
T1 construct: coupled glycerol phosphate oxidase/peroxidase test
T1 sequence (A0ACH1EBP7 1-496): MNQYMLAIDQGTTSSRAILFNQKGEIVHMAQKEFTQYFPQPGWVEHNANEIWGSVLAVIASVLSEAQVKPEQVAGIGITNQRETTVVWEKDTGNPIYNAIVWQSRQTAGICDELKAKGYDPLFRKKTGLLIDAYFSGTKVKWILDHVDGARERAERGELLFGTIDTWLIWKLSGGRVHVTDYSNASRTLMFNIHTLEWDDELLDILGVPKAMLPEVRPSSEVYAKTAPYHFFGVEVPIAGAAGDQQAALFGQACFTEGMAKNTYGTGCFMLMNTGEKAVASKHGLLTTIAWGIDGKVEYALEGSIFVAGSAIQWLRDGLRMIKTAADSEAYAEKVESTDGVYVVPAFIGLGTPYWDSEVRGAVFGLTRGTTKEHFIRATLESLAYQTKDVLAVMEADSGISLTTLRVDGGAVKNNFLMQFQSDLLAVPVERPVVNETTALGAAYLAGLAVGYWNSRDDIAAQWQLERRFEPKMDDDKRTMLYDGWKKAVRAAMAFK
Procedure: (§1) Comparative investigation of various inhibitors according to the present invention with GK of varying origin: […]
(§2) tris/HCl 0.1 mole/litre, pH 7.6
(§3) glycerol phosphate oxidase
(§4) glycerol kinase 2.0 U/ml.
(§5) magnesium sulphate heptahydrate
(§6) 4-chlorophenol 3.5 mMole/litre
(§7) 4-aminoantipyrine 0.35 mMole/litre
(§8) Sample: aqueous glycerol solution 6 mMole/liter sample/reagent ratio 1:100 (20 μl./2 ml.)
(§9) measurement wavelength 546 nm. (ΔE/min. in each case read off from the linear region)

GK from Escherichia coli = GK from Escherichia coli (Escherichia coli, UniProt P0A6F3); assay: Comparative investigation of inhibitors, reaction rate ΔE/min (Table 2); format: biochemical; settings: sample glycerol 6 mMole/liter, 1:100, 25° C., 546 nm
Chain of GK from Escherichia coli (P0A6F3 whole entry): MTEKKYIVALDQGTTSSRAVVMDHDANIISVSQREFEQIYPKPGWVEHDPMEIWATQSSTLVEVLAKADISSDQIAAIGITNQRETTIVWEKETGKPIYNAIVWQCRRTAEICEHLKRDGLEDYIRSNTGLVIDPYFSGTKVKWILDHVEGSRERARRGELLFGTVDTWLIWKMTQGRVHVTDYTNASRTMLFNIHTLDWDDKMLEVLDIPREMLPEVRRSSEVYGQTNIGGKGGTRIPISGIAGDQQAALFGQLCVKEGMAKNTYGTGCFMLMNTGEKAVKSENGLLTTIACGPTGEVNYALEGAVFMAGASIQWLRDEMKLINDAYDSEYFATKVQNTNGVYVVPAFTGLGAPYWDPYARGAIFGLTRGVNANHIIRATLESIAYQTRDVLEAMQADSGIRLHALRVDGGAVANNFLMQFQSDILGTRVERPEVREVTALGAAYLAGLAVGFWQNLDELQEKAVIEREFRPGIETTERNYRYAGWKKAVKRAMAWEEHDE
Procedure: as §1, §2, §3, §4, §5, §6, §7, §8, §9

**Q.** What does the source list for `C[C@H](O)[C@@H](O)[C@@H](O)[C@H](O)C=O` [L-fucose]?
**A.** ΔE/min ([1]; inhibitor 10 mMol/l): 0.230 min⁻¹; ΔE/min ([1]; inhibitor 20 mMol/l): 0.153 min⁻¹; ΔE/min ([1]; inhibitor 50 mMol/l): 0.077 min⁻¹; ΔE/min ([1]; inhibitor 100 mMol/l): 0.039 min⁻¹; ΔE/min (GK from Escherichia coli; inhibitor 20 mMol/l): 0.352 min⁻¹; ΔE/min (GK from Escherichia coli; inhibitor 50 mMol/l): 0.286 min⁻¹; ΔE/min (GK from Escherichia coli; inhibitor 100 mMol/l): 0.209 min⁻¹; ΔE/min (GK from Escherichia coli; inhibitor 150 mMol/l): 0.142 min⁻¹

**Q.** With `O=C[C@@H](O)[C@H](O)[C@@H](O)CO` [L-xylose] as the molecule, how does the ΔE/min ([1]; inhibitor 2 mMol/l) read?
**A.** The ΔE/min was 0.320 min⁻¹.

**Q.** And the ΔE/min ([1]; inhibitor 5 mMol/l)?
**A.** The ΔE/min was 0.188 min⁻¹.

**Q.** And the ΔE/min ([1]; inhibitor 10 mMol/l)?
**A.** The ΔE/min was 0.105 min⁻¹.

**Q.** And the ΔE/min ([1]; inhibitor 20 mMol/l)?
**A.** The ΔE/min was 0.062 min⁻¹.

**Q.** What about the ΔE/min (GK from Escherichia coli; inhibitor 5 mMol/l) of the same molecule?
**A.** Its ΔE/min is 0.228 min⁻¹.

**Q.** What about the ΔE/min (GK from Escherichia coli; inhibitor 10 mMol/l) of the same molecule?
**A.** The ΔE/min was 0.169 min⁻¹.

**Q.** And the ΔE/min (GK from Escherichia coli; inhibitor 20 mMol/l)?
**A.** Its ΔE/min is 0.118 min⁻¹.

**Q.** What about the ΔE/min (GK from Escherichia coli; inhibitor 50 mMol/l) of the same molecule?
**A.** The ΔE/min was 0.072 min⁻¹.

**Q.** For `O=C[C@@H](O)[C@H](O)[C@H](O)CO` [D-arabinose], which ΔE/min ([1]; inhibitor 10 mMol/l) is on record?
**A.** The ΔE/min was 0.426 min⁻¹.

**Q.** What about the ΔE/min ([1]; inhibitor 20 mMol/l) of the same molecule?
**A.** The ΔE/min was 0.349 min⁻¹.

**Q.** What about the ΔE/min ([1]; inhibitor 50 mMol/l) of the same molecule?
**A.** The ΔE/min was 0.249 min⁻¹.

**Q.** What about the ΔE/min ([1]; inhibitor 100 mMol/l) of the same molecule?
**A.** Its ΔE/min is 0.121 min⁻¹.

**Q.** What about the ΔE/min (GK from Escherichia coli; inhibitor 20 mMol/l) of the same molecule?
**A.** Its ΔE/min is 0.363 min⁻¹.

**Q.** What about the ΔE/min (GK from Escherichia coli; inhibitor 50 mMol/l) of the same molecule?
**A.** The ΔE/min was 0.302 min⁻¹.

**Q.** And the ΔE/min (GK from Escherichia coli; inhibitor 100 mMol/l)?
**A.** Its ΔE/min is 0.231 min⁻¹.

**Q.** And the ΔE/min (GK from Escherichia coli; inhibitor 150 mMol/l)?
**A.** The ΔE/min was 0.167 min⁻¹.
